Reference: patent US10323000B2, “Indole derivatives and their use in neurodegenerative diseases” (priority 2014, dated 2019)
Read-outs that look alike come from different tables or passages of the source.

Experiments:
human P2X7 receptor = human P2X7 receptor (Homo sapiens (Human), UniProt Q99572); assay: Pore permeation assay (YO PRO dye uptake); type: cell-based
Protocol: Agonist-induced pore formation was determined by measuring cellular uptake of YO PRO fluorescence dye in HEK293 transfected with human P2X7 receptor. A HEK293 cell over expressing human P2X7 was harvested using HQTase reagent to detach the cells from T75 cm flask. The harvested cells are centrifuged @1200 rpm for 5 min at room temperature. The viability of cells was determined by Trypan blue dye and the cells are plated @10,000 cell/well in 50 ul volume in a 384W BD Poly lysine coated plate and incubated overnight at 37 C. […] The plate was centrifuged at 1000 rpm for 5 seconds and incubated at room temperature for 30 minutes. The uptake of YO PRO dye into the cells was measured using Envision Fluorescence plate reader instrument (Perkin Elmer).

[1] = target: P2X7 (IL-1β release from THP-1 cells) (Homo sapiens (Human), UniProt Q99572); assay: IL-1β release assay; type: cell-based
Protocol: IL-1β release assay: The activation of P2X7 by ATP leads to a fast transient activation of cells resulting in influx of Ca^2+ followed by conversion of pro-IL-1β to active IL-1β. The functional activity of P2X7 compounds was measured by the release of mature […] in the culture medium of THP-1 cells, detected by sandwich ELISA. […] THP-1 cells were harvested from the flask in 50 ml by centrifugation for 3 min at 100 g. The cells were resuspended to 2×10^5 cells/ml in medium supplemented with 0.5 μM PMA and incubated. The cells were washed and resuspended to 1.5×10^5 cells/ml in medium complemented with 10 ng/ml LPS, and the cells were primed for 4 h at 37° C., 5% CO2. After addition of 20 μL of prediluted test compounds, blank, standard and control reagents, cells were incubated for a further 20 min at 37° C. and stimulated with 0.8 mM BzATP for 30 minutes. The cells were centrifuged, supernatant was collected and the presence of mature IL-1β was detected using Dual human IL-1b kit following manufacturer's instruction. The tetrahydrobenzodiazepine analogs effectively modulated the activity of P2X7 in the cells as measured by the levels of pro-inflammatory cytokine IL-1β, which is released by the activation of P2X7 receptor.

[2] = HEK293 transfected with human P2X7, BzATP 10 uM, YO PRO dye uptake, read-out: hP2X7 IC50
[3] = THP-1 cells, LPS primed, 0.8 mM BzATP, mature IL-1β by sandwich ELISA, read-out: hTHP-1/IL-ib IC50

Chain of P2X7 (IL-1β release from THP-1 cells) (Q99572 whole entry): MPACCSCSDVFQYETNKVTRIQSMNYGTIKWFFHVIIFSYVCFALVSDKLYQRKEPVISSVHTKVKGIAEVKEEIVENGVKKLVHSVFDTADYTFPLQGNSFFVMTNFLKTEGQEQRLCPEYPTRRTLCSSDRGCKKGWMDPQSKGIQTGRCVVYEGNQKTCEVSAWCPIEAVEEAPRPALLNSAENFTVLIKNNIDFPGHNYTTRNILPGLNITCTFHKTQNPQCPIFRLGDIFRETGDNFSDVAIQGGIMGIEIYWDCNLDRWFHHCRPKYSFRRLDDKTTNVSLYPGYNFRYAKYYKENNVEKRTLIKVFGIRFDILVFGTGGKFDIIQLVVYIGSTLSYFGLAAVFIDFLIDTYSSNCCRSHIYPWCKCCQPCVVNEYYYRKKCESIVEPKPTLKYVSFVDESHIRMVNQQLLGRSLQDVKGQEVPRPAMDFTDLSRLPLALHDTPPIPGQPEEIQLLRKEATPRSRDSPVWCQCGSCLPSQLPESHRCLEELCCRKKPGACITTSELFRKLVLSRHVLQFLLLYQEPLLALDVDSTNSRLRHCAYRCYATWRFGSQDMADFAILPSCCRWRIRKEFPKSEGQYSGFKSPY
Chain of human P2X7 receptor (Q99572 whole entry): as above

| SMILES | IC50 (human P2X7 receptor) | IC50 [1] | IC50 (human P2X7 receptor; [2]) | IC50 [1, 3] |
| --- | --- | --- | --- | --- |
| COCCn1cc(C(=O)NCC2(c3ccccc3)CCCCC2)c2c(Cl)cccc21 [Compound 39, 4-chloro-1-(2-methoxyethyl)-N-((1-phenylcyclohexyl)methyl)-1H-indole-3-carboxamide] | 10 to 100 nM | 101 to 500 nM |  |  |
| O=C(NCC1(O)CCCC(C(F)(F)F)C1)c1cn(C2CCOC2)c2cccc(Cl)c12 (stereo not drawn) [Compound 100, 4-chloro-N-((1-hydroxy-3-(trifluoromethyl)cyclohexyl)methyl)-1-(tetrahydrofuran-3-yl)-1H-indole-3-carboxamide] |  |  | > 1000 nM | > 1000 nM |
| CC(=O)N1CC[C@H]1Cn1cc(C(=O)NCC2CCC(F)(F)CC2)c2c(Cl)cccc21 [Compound 181, (S)-1-((1-acetylazetidin-2-yl)methyl)-4-chloro-N-((4,4-difluorocyclohexyl)methyl)-1H-indole-3-carboxamide] |  |  | 101 to 500 nM | 101 to 500 nM |
| CCC1CCCC(O)(CNC(=O)c2cn(CC3CCCO3)c3cccc(Cl)c23)C1 (stereo not drawn) [Compound 137, 4-chloro-N-((3-ethyl-1-hydroxycyclohexyl)methyl)-1-((tetrahydrofuran-2-yl)methyl)-1H-indole-3-carboxamide] | 101 to 500 nM |  |  | > 1000 nM |
| COCCn1cc(C(=O)NCCc2ccccc2Cl)c2c(Cl)cccc21 [Compound 35, 4-Chloro-1-(2-methoxy-ethyl)-1H-indole-3-carboxylic acid [2-(2-chloro-phenyl)-ethyl]-amide] | 101 to 500 nM | 101 to 500 nM |  |  |
| O=C(NCC1(O)CCC(F)(F)CC1)c1cn(CC2CCOC2)c2cccc(Cl)c12 (stereo not drawn) [Compound 147, 4-chloro-N-((4,4-difluoro-1-hydroxycyclohexyl)methyl)-1-((tetrahydrofuran-3-yl)methyl)-1H-indole-3-carboxamide] | 10 to 100 nM | 10 to 100 nM |  |  |
| C[C@H]1CCC[C@@](O)(CNC(=O)c2cn(CC(F)(F)F)c3cccc(Cl)c23)C1 [Compound 2, 4-chloro-N-(((1S,3S)-1-hydroxy-3-methylcyclohexyl)methyl)-1-(2,2,2-trifluoroethyl)-1H-indole-3-carboxamide] | 10 to 100 nM | 10 to 100 nM |  |  |
| O=C(NCC1CC(C(F)(F)F)CC(F)(F)C1)c1cn(CC2CCCO2)c2cccc(Cl)c12 (stereo not drawn) [Compound 141, 4-chloro-N-((3,3-difluoro-5-(trifluoromethyl)cyclo-hexyl)methyl)-1-((tetrahydrofuran-2-yl)methyl)-1H-indole-3-carboxamide] | 10 to 100 nM | 10 to 100 nM |  |  |
| COCCn1cc(C(=O)NCCc2ccc(Cl)cc2Cl)c2c(Cl)cccc21 [Compound 36] | 101 to 500 nM |  |  | > 1000 nM |
| O=C(NCCC1CCCC1)c1cn(C2COC2)c2cccc(Cl)c12 [Compound 82, 4-Chloro-1-oxetan-3-yl-1H-indole-3-carboxylic acid (2-cyclopentyl-ethyl)-amide] |  | 101 to 500 nM | < 10 nM |  |
| O=C(NCC(c1ccccc1)C1CCCC1)c1cn(C2COC2)c2cccc(Cl)c12 (stereo not drawn) [Compound 70, 4-Chloro-1-oxetan-3-yl-1H-indole-3-carboxylic acid (2-cyclopentyl-2-phenyl-ethyl)-amide] | 10 to 100 nM | 101 to 500 nM |  |  |
| O=C(NCC1CCCCC1)c1cn(C2COC2)c2cccc(Cl)c12 [Compound 48, 4-chloro-N-(cyclohexylmethyl)-1-(oxetan-3-yl)-1H-indole-3-carboxamide] | 101 to 500 nM | 101 to 500 nM |  |  |
| O=C(NC[C@@]1(O)CCCC(F)(F)C1)c1cn(C[C@@H]2CCCO2)c2cccc(Cl)c12 [Compound 129] | 101 to 500 nM | 500 to 999 nM |  |  |
| C[C@@H]1CCC[C@](O)(CNC(=O)c2cn(CCC(F)F)c3cccc(Cl)c23)C1 [Compound 8, 4-Chloro-1-(3,3-difluoro-propyl)-1H-indole-3-carboxylic acid ((1R,3R)-1-hydroxy-3-methyl-cyclohexylmethyl)-amide] | 10 to 100 nM | 101 to 500 nM |  |  |
| O=C(NCC1CCC(F)(F)CC1)c1cn(C2CCOC2)c2cccc(Cl)c12 (stereo not drawn) [Compound 114, 4-chloro-N-((4,4-difluorocyclohexyl)methyl)-1-(tetrahydrofuran-3-yl)-1H-indole-3-carboxamide] | 10 to 100 nM | 101 to 500 nM |  |  |
| O=C(NC[C@]1(O)CCCC(F)(F)C1)c1cn(CCN2CCCC2)c2cccc(Cl)c12 [Compound 177, (S)-4-chloro-N-((3,3-difluoro-1-hydroxycyclohexyl)methyl)-1-(2-(pyrrolidin-1-yl)ethyl)-1H-indole-3-carboxamide] | 101 to 500 nM | 101 to 500 nM |  |  |
| O=C(NCC1CCC(C(F)(F)F)CC1)c1cn(C2COC2)c2cccc(Cl)c12 (stereo not drawn) [Compound 53, 4-Chloro-1-oxetan-3-yl-1H-indole-3-carboxylic acid (4-trifluoromethyl-cyclohexylmethyl)-amide] | 10 to 100 nM | 101 to 500 nM |  |  |
| COCCn1cc(C(=O)NC(CO)c2cccc(C(F)(F)F)c2Cl)c2c(Cl)cccc21 (stereo not drawn) [Compound 32, 4-chloro-N-(1-(2-chloro-3-(trifluoromethyl)phenyl)-2-hydroxyethyl)-1-(2-methoxyethyl)-1H-indole-3-carboxamide] |  |  | 101 to 500 nM | 500 to 999 nM |
| C[C@@H]1CCC[C@](O)(CNC(=O)c2cn(CC(F)(F)F)c3cccc(Cl)c23)C1 [Compound 3, 4-chloro-N-(((1R,3R)-1-hydroxy-3-methylcyclo-hexyl)methyl)-1-(2,2,2-trifluoroethyl)-1H-indole-3-carboxamide] | 10 to 100 nM | 101 to 500 nM |  |  |
| COCCn1cc(C(=O)NC[C@@]2(O)CCCC(F)(F)C2)c2c(Cl)cccc21 [Compound 21, (R)-4-chloro-N-((3,3-difluoro-1-hydroxycyclohexyl)methyl)-1-(2-methoxyethyl)-1H-indole-3-carboxamide] |  | 10 to 100 nM | < 10 nM |  |
| O=C(NC[C@]1(O)CCCC(F)(F)C1)c1cn(C[C@@H]2CCCO2)c2cccc(Cl)c12 [Compound 130, 4-chloro-N—(((S)-3,3-difluoro-1-hydroxycyclohexyl)methyl)-1-(((S)-tetrahydrofuran-2-yl)methyl)-1H-indole-3-carboxamide] | 10 to 100 nM | 10 to 100 nM |  |  |
| O=C(NCC1(O)CCCC(F)(F)C1)c1cn(CC2CCN2)c2cccc(Cl)c12 (stereo not drawn) [Compound 124, 1-(azetidin-2-ylmethyl)-4-chloro-N-((3,3-difluoro-1-hydroxycyclohexyl)methyl)-1H-indole-3-carboxamide] | 10 to 100 nM | 10 to 100 nM |  |  |
| COCCn1cc(C(=O)NCC2(c3ccc(C(F)(F)F)cc3)CCOCC2)c2c(Cl)cccc21 [Compound 38] | 10 to 100 nM | 101 to 500 nM |  |  |
| O=C(NCC1(N2CCN(c3ccccc3)CC2)CCCCC1)c1cn(C2COC2)c2cccc(Cl)c12 [Compound 51, 4-chloro-1-(oxetan-3-yl)-N-((1-(4-phenylpiperazin-1-yl)cyclohexyl)methyl)-1H-indole-3-carboxamide] | 10 to 100 nM |  |  | < 10 nM |
| O=C(NCC1CCC(F)(F)CC1)c1cn(CC2CCOC2)c2cccc(Cl)c12 (stereo not drawn) [Compound 148, 4-chloro-N-((4,4-difluorocyclohexyl)methyl)-1-((tetrahydrofuran-3-yl)methyl)-1H-indole-3-carboxamide] | 10 to 100 nM | 10 to 100 nM |  |  |
| O=C(NCC1CCC(F)(F)CC1)c1cn(CC2CCCN2)c2cccc(Cl)c12 (stereo not drawn) [Compound 158, 4-chloro-N-((4,4-difluorocyclohexyl)methyl)-1-(pyrrolidin-2-ylmethyl)-1H-indole-3-carboxamide] |  |  | < 10 nM | < 10 nM |
| CN1CC[C@H]1Cn1cc(C(=O)NCC2CCC(F)(F)CC2)c2c(Cl)cccc21 [Compound 151, (S)-4-chloro-N-((4,4-difluorocyclohexyl)methyl)-1-((1-methylazetidin-2-yl)methyl)-1H-indole-3-carboxamide] | 10 to 100 nM | 10 to 100 nM |  |  |
| CC(C(=O)N(C)C)n1cc(C(=O)NCC2CCC(F)(F)CC2)c2c(Cl)cccc21 (stereo not drawn) [Compound 200, 4-chloro-N-((4,4-difluorocyclohexyl)methyl)-1-(1-(dimethylamino)-1-oxopropan-2-yl)-1H-indole-3-carboxamide] |  | 10 to 100 nM | < 10 nM |  |
| O=C(NCCC1CCCC1)c1cn(C2CCOC2)c2cccc(Cl)c12 (stereo not drawn) [Compound 108, 4-Chloro-1-(tetrahydro-furan-3-yl)-1H-indole-3-carboxylic acid (2-cyclopentyl-ethyl)-amide] | 10 to 100 nM | 101 to 500 nM |  |  |
| CC1CC(F)(F)CC(O)(CNC(=O)c2cn(C3COC3)c3cccc(Cl)c23)C1 (stereo not drawn) [Compound 89, 4-chloro-N-((3,3-difluoro-1-hydroxy-5-methylcyclohexyl)methyl)-1-(oxetan-3-yl)-1H-indole-3-carboxamide] | 101 to 500 nM | 500 to 999 nM |  |  |
